Tests used:
Assay type in all cases: in vivo, human
patient with T2DM [1] = assay: Gliclazide/inulin combination therapy, extended case report: FBG, HA1C and lipid profiles; details: Gliclazide 30 mg once daily for nearly a decade, before inulin
Source text: This patient began the combination therapy with a commercially available inulin (Cl) as previously described in PCT/AU2011/000622, the contents of which are incorporated herein in their entirety. Various blood parameter measurements were as described PCT/AU2011/000622.

patient with T2DM [2] = assay: Glimepiride/inulin combination therapy, T2DM case report, FBG
Procedure: Doctor recommended diet-only treatment. […] The dose was increased in a 1 mg increment and currently this patient is taking 4 mg once daily Glimepiride. [table] Blood sugar level was determined using Accu-Chek Performa (Roche, Mannheim, Germany) device (CAT/TYP 04680464003 mmol/L and 55405079196) according to manufacturer instructions. During baseline measurements of FBG levels, patient was on Glimepiride at the dose of 4 mg once daily.

patient with T2DM [3] = assay: Glipizide/inulin combination therapy, T2DM case report, FBG
Procedure: person, with body mass index of 29 classified as overweight, with the family history of T2DM.
[…] the patient was diagnosed with T2DM. Doctor recommended diet-only treatment. […] due to increased FBG levels the patient was treated with Glipizide (5 mg/day, 5 mg once daily). The dose was increased in a 5 mg increment and currently this patient is taking 15 mg/day, 5 mg three times a day, Glipizide.
Blood sugar level was determined using Accu-Chek Performs (Roche, Mannheim, Germany) device (CAT/TYP 04680464002 mmol/L and 55403057614) according to manufacturer instructions.
During baseline measurements of FBG level, patient was on Glipizide at the dose of 15 mg per day.
inulin introduced at 3 g/day (1 g with each meal, 3 times a day) for one week. Inulin amount was increased to 6 g/day (2 g with each meal, 3 times a day) at week 2, 9 g/day (3 g with each meal, 3 times a day) at week 3 and 12 g/day (4 g with each meal, 3 times a day) at week 4.
Patient continued taking inulin with meal at 4 g/meal (12 gr/day total).

For Cc1ccc(S(=O)(=O)NC(=O)NN2CC3CCCC3C2)cc1 (centres unmarked) [Gliclazide], the blood glucose levels (patient with T2DM [1]) was “above 9 mmol/L”.
In the case of CCC1=C(C)CN(C(=O)NCCc2ccc(S(=O)(=O)NC(=O)N[C@H]3CC[C@H](C)CC3)cc2)C1=O [Glimepiride], the FBG at baseline (patient with T2DM [2]; Glimepiride 4 mg once daily, no inulin, June 2011) is reported as about 8 mmol/L and the “FBG level prior to inulin combination therapy” value (patient with T2DM [2]; Glimepiride monotherapy, a couple of years prior to inulin) is reported as “above 7 mmol/L”.
For Cc1cnc(C(=O)NCCc2ccc(S(=O)(=O)NC(=O)NC3CCCCC3)cc2)cn1 [Glipizide], the FBG at baseline (patient with T2DM [3]; Glipizide 15 mg per day, no inulin, July 2011) was about 6.5 mmol/L and the “FBG level prior to inulin combination therapy” value (patient with T2DM [3]; Glipizide monotherapy, a couple of years prior to inulin) was “around 7 mmol/L”.

From patent publication US9737559B2, “Synergistic anti-diabetic compositions” (Ozstar Therapeutics Pty Ltd, priority 2011, dated 2017)
